Experiments:
blood-lipid = experiment: Hypolipidemic test in rabbits on high fat diet; format: in vivo, rabbit; conditions: positive control 0.3 g/kg/d
Description: Experimental animals: 60 Beijing white rabbits with big ears, all male with body weight of 1.5-2 kg.
Drugs and reagents: cholesterol (produced at Beijing Chemical Reagent Company). Propyl thiooxyuracil tablet (refers to PTV hereafter, produced in Germany, 50 mg each tablet), lard (prepared by ourselves). The extract powder from pine needle of the invention (refers to the power of pine needle hereafter). Inostitol hexanicotinate tablet (produced by the second Pharmaceutical Factory of Beijing, 0.2 each tablet). The kits of total cholesterol, triglyceride, high density lipoprotein, and low density lipoprotein (produced by Beijing Zhongsheng Biotechnical Company).
Methods: The white rabbits with big ears were divided into 5 groups at random after raised for 10 days with normal diet. 10 rabbits each group. The high fat diet was given after taking blood from the helicine veins of the fasting rabbits in the morning. Determined the blood-lipid of the blood samples. The high fat diet included cholesterol 2 g/kg (body weight)/d, lard 0.5 g/kg/d, PTV 12.5 mg/kg/d. In the forth group, gave […] of the powder of pine needle along with the high fat diet to the rabbits of (the prevention group). Took blood from the fasting rabbits again and determined their body weights after 15 days of high-fat diet. Then stopped the high-fat diet and changed it for normal diet: (1) blank control group: giving distilled water 10 ml each day with the gavage method; (2) positive control group: giving Inositol hexnicotinate tablets, 0.3 g/kg/d; (3) low dose group: giving the powder of pine needle, 0.25 g/kg/d; (4) prevention group: went on giving the powder of pine needle 0.75 g/kg/d, 30 days in all; (5) high dose group: giving the powder of pine needle, 1.5 g/kg/d. The powder was dissolve din 10 ml distilled water and gave it with gavage method once a day. Took blood from the fasting rabbits on the fifteenth day after the administration to determine the levels of blood-lipid. The levels of total cholestorol, triglyceride, high density lipoprotein and low density lipoprotein were examined by CHOO-PAP method, GPO-PAP method, PTA-Mg^2+ deposition method and PVS one-step deposition method, respectively. The instrument used was Hitachi, Model 750 automatic biochemical analyzer.

blood pressure = experiment: Clinical test of the composition to lower blood pressure; format: in vivo, human; conditions: 44 cases per group, 20 days
Description: All of them were diagnosed as hypertension according to the diagnostic standard of WHO. […] The patients of the control group were treated with Captopril. The patients of the control group were adults aged below 59, and their average age was 47±7.8. The patients stopped taking hypotensor a week before taking part in the test. […] If the blood pressure was not reduced to the normal scope, then a dose (0.5 g) was increased every 5 days. The crescendo every 5 days, and the maximal dose couldn't exceed 3 g each time and 3 times a day. The whole course of treatment was 20 days. 25 mg Captopril was given to the patients of the control group each time and three times a day. […] The crescendo every 5 days, and the maximal dose couldn't exceed 75 mg each time and three times a day. The whole course of treatment was 20 days too.
The blood pressure before treatment: All the patients stopped taking hypotensor a week before treatment. Then the blood pressure was measured once a day continuously for 5 days. Took the mean of the 5 values (non same day) as the blood pressure before treatment.
The blood pressure after treatment: Measured the blood pressure once a day after the treatment. Took the mean of the 5 values measured on the 16th, 17th, 18th, 19th, 20th day after the treatment as the blood pressure after the treatment. Examined the blood routine, the urine routine, the functions of liver, the renal function, the serum electrolyte (including K^+, Na^+, Cl^-), the blood-lipid, the blood sugar, the ECG of every day before and after the treatment.
The criteria of therapeutic effect:
As to the systolic hypertension, the systolic pressure was reduced more than 4 kpa. Ineffectiveness: The decrement of the blood pressure after the treatment didn't achieve the above standard.

| Compound | high density lipoprotein IR % (increasing rate) (blood-lipid) [%] | low density lipoprotein DR % (blood-lipid) [%] | total cholesterol DR % (decreasing rate) (blood-lipid) [%] | triglyceride DR % (blood-lipid) [%] | high density lipoprotein after treatment (blood-lipid; after HFD 0.83) | triglyceride after treatment (blood-lipid; after HFD 1.87) | low density lipoprotein after treatment (blood-lipid; after HFD 9.20) | total cholesterol after treatment (blood-lipid; after HFD 26.67) | Effectiveness (blood pressure) [case number] | ineffectiveness (blood pressure) [case number] | total effective rate (blood pressure) [%] | remarkable effectiveness (blood pressure; composition 1.5-3 g t.i.d., captopril 25-75 mg t.i.d.) [case number] |
| --- | --- | --- | --- | --- | --- | --- | --- | --- | --- | --- | --- | --- |
| O=C(O[C@H]1[C@H](OC(=O)c2cccnc2)[C@@H](OC(=O)c2cccnc2)[C@H](OC(=O)c2cccnc2)[C@@H](OC(=O)c2cccnc2)[C@H]1OC(=O)c1cccnc1)c1cccnc1 [Inositol hexanicotinate] | 8.90 | 37.38 | 28.20 | 16.03 | 0.74 | 1.64 | 5.71 | 19.48 |  |  |  |  |
| C[C@H](CS)C(=O)N1CCC[C@H]1C(=O)O [captopril] |  |  |  |  |  |  |  |  | 10 | 8 | 82 | 26 |

— patent US6329000A, “Extract of pine needle and the use thereof” (priority 1999, dated 2001)
